Assay results from patent publication US4967772A, “Tobacco smoking article and treatment of tobacco smoke with at least one alcohol” (C.A. Blockers, Inc., priority 1987, dated 1990).

Assays:
[1] = test system: rats; settings: cited from earlier work
[2] = test system: rodents; settings: cited from earlier work; for carcinogenicity: N-nitroso derivatives of tobacco alkaloids
[3] = test system: tissues of the body; settings: [14C] NNN, adult male C57BL/6J mice; cited from earlier work
[4] = test system: F-344 rat esophagus; settings: in contrast to other tissues; cited from earlier work
[5] = test system: F-344 rats; settings: NNN in drinking water; cited from earlier work
[6] = test system: malignant growth and tumor development; settings: cited from earlier work
[7] = test system: epithelial membranes; settings: cited from earlier work
[8] = test system: nitrosamine localization; assay: Inhibition of selective localization of nitrosamines (delocalization), general statement; assay type: in vivo
Text: The alcohols which are operable according to the invention include alcohols having two or more carbons. However, it is preferable to use alcohols having alkyl groups of at least three carbons or greater. The alkyl groups may have a straight-chain or branched chain structure. Moreover, the alkyl groups may have a cyclic or acyclic structure.

[9] = test system: bronchial epithelium; assay: Whole-body autoradiography of [14C] NNN after inhalation of cyclohexanol vapor; assay type: in vivo, C57BL/6J mouse; settings: 5 min inhalation
Protocol: The mouse was kept in the closed beaker for about five minutes as the bottom of the beaker was maintained at 50° C. in a water bath. […] Handbook of Chemistry and Physics (1979) at D-203 to D-217, which is incorporated herein in its entirety.
One hour later, the mouse was anesthetized lightly by ether and frozen by immersion in dry ice/hexane. […] Control experiments were conducted for comparison purposes and radioactivity was detected in the respiratory epithelium in the controls.
Example 2 was duplicated, except that the mouse was kept in the closed beaker for five minutes as the bottom of the beaker was maintained at 20° C. in a water bath. […] After injection as in Example 2, the mouse was processed in the same manner as in Example 2.

[10] = test system: liver; settings: oral 20 min before i.v. [14C] NNN; ethanol 1 and 5 g/Kg, n- and t-butanol 0.2 and 1 g/Kg; 1 h
Protocol: (§1) One hour later, the mice were anesthetized lightly with ether and frozen by immersion in dry ice/hexane. Twenty u-thick whole-body sagittal sections of the frozen mice were taken onto Scotch tape and were then processed for whole-body autoradiography by known methods. See W. Waddell et al, Drug Fate and Metabolism: Methods and Techniques. E.R. Garrett and J.L. Hirtz, Eds. […] Photometric density in areas of the developed autoradiographs was measured with an ADG Instruments photometer and a photocell with an aperture of three mm lying on the easel of a photographic enlarger. The X-ray film was placed in the enlarger and raised to produce a magnification of thirty-five times on the easel.
(§2) NNN. […] (Twenty minutes is the average time it takes for alcohols introduced by oral intubation in mice to reach the peak blood level.)
(§3) The number within each bar thereof represents the dose in g/kg of the alcohol which was administered orally twenty minutes before the [^14 C] NNN was given intravenously. The mice were frozen one hour after receiving the [^14 C] NNN. The means for each mouse were from fifteen measurements on random areas of that site (five absorbancies on each of three autoradiographs) after setting blood in each on zero. The control value is the mean from six mice; the n-butanol at one g/kg is from two mice; and the other means are from one mouse.

[11] = test system: salivary duct epithelium; settings: oral 20 min before i.v. [14C] NNN; ethanol 1 and 5 g/Kg, n-butanol 0.2 and 1 g/Kg; 1 h
Protocol: as §1, §2, §3

[12] = Whole-body autoradiography: localization of [14C] NNN radioactivity in bronchial epithelium after oral alcohol pretreatment; assay type: in vivo, male C57BL/6J mice
Protocol: as §1, §2, §3

[13] = test system: nitrosamine localization; assay: Whole-body autoradiography of [14C] NNN after intraperitoneal imidazole; assay type: in vivo, male C57BL/6J mouse; settings: 20 min before i.v. [14C] NNN, vs control mouse
Protocol: An adult male C57BL/6J mouse was injected intraperitoneally with 0.02 ml/g body weight of a solution of imidazole in water. The imidazole solution concentration was such that 0.05 g of imidazole was delivered per kg of body weight. […] See Example 1.
Example 4 was duplicated except that the adult mouse was injected intraperitoneally with 0.02 ml/g body weight of a solution of imidazole in water, wherein the solution concentration was such that 0.25 g of imidazole was delivered per kg of body weight.

[14] = test system: adult human; settings: per kg body weight; cited from earlier work

Compound: CCCCC(CC)CO (stereo not shown) [2-ethyl hexanol]
- Acute Oral LD50 rats ([1]; rat, in vivo, po): 3.2 to 7.1 g/kg

Compound: CN(CCCC(=O)c1cccnc1)N=O [NNK, 4-N-methyl-N-nitrosamino)-1-(3-pyridyo-1-butano]
- carcinogenicity [2]: powerful environmental carcinogens

Compound: O=NN1CCCC1c1cccnc1 (stereo not shown) [NNN, N'-Nitrosonoronicotine]
- carcinogenicity [2]: powerful environmental carcinogens
- sites of tumor formation ([2]; in vivo): typically induces tumor formation at five sites, namely the nasal cavity, salivary duct, esophagus, bronchial epithelium and the liver
- carcinogenesis in olfactory epithelium, lung, salivary glands ([2]; rodents): known to induce carcinogenesis in the olfactory epithelium, lung, salivary glands
- retention of radioactivity versus sites of tumor formation [3]: striking correlation of the retention of radioactivity with the previously reported sites of tumor formation
- hydroxylation at the a-carbon of NNN adjacent to the pyridine ring [4]: preferentially catalyzes hydroxylation at the a-carbon of NNN adjacent to the pyridine ring
- esophageal tumors [5]: esophageal tumors have been induced

Compound: [Se] [Selenium]
- tumor development [6]: inhibit tumor development

Compound: O=C1O[C@H]([C@@H](O)CO)C(O)=C1O [Vitamin C]
- formation of nitrosamines on epithelial membranes [7]: prevent the formation of nitrosamines on epithelial membranes

Compound: S=C=NCc1ccccc1 [benzylisothiocyanate]
- delocalization of nitrosamines [8]: found to delocalize nitrosamines

Compound: OC1CCCCC1 [cyclohexanol]
- radioactivity in bronchial epithelium ([9]; 20° C., 0.001% cyclohexanol in air): No radioactivity was detected in any part of the bronchial epithelium
- radioactivity in bronchial epithelium ([9]; 50° C., 0.01% cyclohexanol in air): No radioactivity was detected in any part of the bronchial epithelium

Compound: C[S+](C)[O-] [dimethylsulfoxide (DMSO), dimethylsulfoxide]
- delocalization of nitrosamines [8]: found to delocalize nitrosamines

Compound: CCO [ethanol]
- localization of radioactivity in periportal and central areas of the liver [10]: reduced by pretreatment
- localization of radioactivity in salivary duct epithelium [11]: reduced by pretreatment
- localization of radioactivity in bronchial epithelium ([12]; oral 20 min before i.v. [14C] NNN, ethanol 1 and 5 g/Kg, n-butanol 0.2 and 1 g/Kg, 1 h): reduced by pretreatment

Compound: c1c[nH]cn1 [imidazole]
- delocalization of nitrosamines [8]: found to delocalize nitrosamines
- nitrosamine delocalization ([13]; 0.05 g/kg imidazole i.p.): Significant nitrosamine delocalization
- delocalization of nitrosamine ([13]; 0.25 g/kg imidazole i.p.): significant delocalization of nitrosamine

Compound: CN1CCCC1c1cccnc1 (stereo not shown) [nicotine]
- estimated acutely fatal oral dose [14]: 1 mg/kg

Compound: c1cn[nH]c1 [pyrazole]
- delocalization of nitrosamines [8]: found to delocalize nitrosamines

Compound: CC1=C(/C=C/C(C)=C/C=C/C(C)=C/CO)C(C)(C)CCC1 [retinol, reference compound]
- inhibition of nitrosamine localization [8]: does not inhibit nitrosamine localization

Compound: [Cl-].[Na+] [sodium chloride, reference compound]
- LD50 ([1]; acute oral, rats): about 3.75 g/Kg

Compound: CC(C)(C)O [t-butanol]
- inhibition in bronchial epithelium (FIG. 1), ranking ([12]; from inspection of FIG. 1, oral pretreatment): greatest inhibition
- localization of [14C] NNN in bronchial epithelium ([12]; high dosage (t-butanol 1 g/Kg oral), 20 min before i.v. [14C] NNN): almost completely abolished

Compound: Vitamin A
- malignant growth [6]: suppress malignant growth

Compound: Vitamin E
- formation of nitrosamines on epithelial membranes [7]: prevent the formation of nitrosamines on epithelial membranes
